According to patent US20100255004A1, “RECEPTOR TYROSINE KINASE PROFILING” (Dana Farber Cancer Institute, priority 2007, published 2010):
Where a name gives a salt, the structure may show the parent alone.

Legend:
[1] = tested on: PI3K signaling (p85α/GAB1 complex, P-AKT, P-S6); assay: GAB1 immunoprecipitation and immunoblots of P-AKT and P-S6 in U87MG-EGFR* cells; type: cell-based, human; settings: U87MG-EGFR* cells (PTEN mutant), 10 μM each inhibitor (FIG. 3C)
Description: U87MG parental cells or cells constitutively expressing wt EGFR, the activating vIII deletion mutant (EGFR*) or the vIII mutant with an inactivating mutation in its kinase domain (EGFR*-KD) were immunoprecipitated with an antibody to the RTK/PI-3K adaptor protein, GAB1 (left panel), then immunoblots were probed with the indicated antibodies. […] Whole cell extracts (WCE) from the same cells were immunoblotted with the indicated antibodies. […] C. […] Bottom panel: Un-immunoprecipitated whole cell extracts were immunoblotted with the indicated antibodies. […] Error bars indicate SEM, n=4. […] U87MG-EGFR* cells were transfected with empty vector, HRASV12, myristoylated-AKT, or p110α-CAAX, then treated with 10 μM each of erlotinib (E), SU11274 (S), and imatinib (I) in 0.05% serum-containing medium for 72 hours prior to assaying cell viability.
We also immunoblotted whole cell extracts with antibodies against MAPK and phosphorylated versions of AKT, MAPK, and S6 (FIG. 3C, bottom panel):
Following 30 min incubation in lysis buffer at 4° C., lysates were cleared by centrifugation at 10 k 10 min 4° C., then protein concentrations were determined by BioRad DC Protein Assay. […] Co-immunoprecipitated proteins were detected with either mouse or rabbit TrueBlot HRP conjugated secondaries (eBioscience). • Antibody arrays.

[2] = biological target: T1, PDGFRβ (Homo sapiens, UniProt P09619); assay: Immunoblot of P-PDGFRβ in LN382 and LN18 cells; type: cell-based; settings: 1 μM, 24 hours (FIG. 4F)
T1 construct: endogenous in cells; host or cells: LN382 and LN18 glioma cells
Description: DNA is labeled with Hoechst 33342.

[3] = tested on: PDGFR; assay: p-PDGFR in LNZ308 cells; type: cell-based, human
Description: We then correlated inhibition of PI3K activity with biological effects of various combinations of RTK inhibitor treatment regimens. […] Second, we are mindful of the limitation of detection sensitivity by current antibody array technology and that a particular RTK may not be represented or be activated at an undetectable but biologically-relevant level. As shown in FIG. 4C-E, combination inhibition of RTKs in LN382 and LNZ308, both PTEN mutant GBM lines, effectively extinguished PI3K activity.

[4] = biological target: T2, MET (Homo sapiens, UniProt P08581); assay: RTK antibody array, phosphorylation of MET in U87MG-EGFR* cells; type: cell-based; design: endogenous in cells; settings: 10 μM, RTK antibody array (FIG. 3B)
Description: Error bars indicate SEM, n=4.
Following 30 min incubation in lysis buffer at 4° C., lysates were cleared by centrifugation at 10 k 10 min 4° C., then protein concentrations were determined by BioRad DC Protein Assay. […] Tyrosine-phosphorylated proteins were visualized by separation on NuPAGE 3-8% Tris-Acetate gels (Invitrogen), blotted onto nitrocellulose, blocked with 3% Immunoblot Blocking Reagent (Upstate), then incubated with anti-phosphotyrosine antibody (4G10, Upstate). […] Co-immunoprecipitated proteins were detected with either mouse or rabbit TrueBlot HRP conjugated secondaries (eBioscience). • Antibody arrays. Cells were harvested as for immunoprecipitations above. Snap-frozen tumors were thawed in immunoprecipitation lysis buffer, homogenized by hand 50× with disposable 1.5 mL pestles, incubated 30 min 4° C. with inversion, homogenized 50×, then cleared by centrifugation at 10 k 10 min 4° C. Proteins were quantitated as above. RTK antibody arrays were purchased from R&D Systems (#ARY-001) and performed as recommended but with 2 mg protein lysate per array. • Soft agar colony formation.

[5] = biological target: T2, MET; assay: Immunoblot of P-MET in LN382 and LN18 cells; type: cell-based; design: endogenous in cells; host or cells: LN382 and LN18 glioma cells; settings: 1 μM, 24 hours (FIG. 4F)
Description: A-E. The glioma cell lines LN18 (wt PTEN), SF767 (wt PTEN), LN382 (mut PTEN) and LNZ308 (mut PTEN) were incubated in 0.05% serum-containing medium cells and treated with 10 μM erlotinib (E or T), 10 μM SU11274 (S), and/or 10 μM imatinib (I or G) and immunoblotted as in FIG. 3. […] LN382 and LN18 cells were treated with 1 μM each RTK inhibitor for 24 hours, then immunoblotted with antibodies to P-PDGFRβ and P-MET.

T2 sequence (P08581 25-1390): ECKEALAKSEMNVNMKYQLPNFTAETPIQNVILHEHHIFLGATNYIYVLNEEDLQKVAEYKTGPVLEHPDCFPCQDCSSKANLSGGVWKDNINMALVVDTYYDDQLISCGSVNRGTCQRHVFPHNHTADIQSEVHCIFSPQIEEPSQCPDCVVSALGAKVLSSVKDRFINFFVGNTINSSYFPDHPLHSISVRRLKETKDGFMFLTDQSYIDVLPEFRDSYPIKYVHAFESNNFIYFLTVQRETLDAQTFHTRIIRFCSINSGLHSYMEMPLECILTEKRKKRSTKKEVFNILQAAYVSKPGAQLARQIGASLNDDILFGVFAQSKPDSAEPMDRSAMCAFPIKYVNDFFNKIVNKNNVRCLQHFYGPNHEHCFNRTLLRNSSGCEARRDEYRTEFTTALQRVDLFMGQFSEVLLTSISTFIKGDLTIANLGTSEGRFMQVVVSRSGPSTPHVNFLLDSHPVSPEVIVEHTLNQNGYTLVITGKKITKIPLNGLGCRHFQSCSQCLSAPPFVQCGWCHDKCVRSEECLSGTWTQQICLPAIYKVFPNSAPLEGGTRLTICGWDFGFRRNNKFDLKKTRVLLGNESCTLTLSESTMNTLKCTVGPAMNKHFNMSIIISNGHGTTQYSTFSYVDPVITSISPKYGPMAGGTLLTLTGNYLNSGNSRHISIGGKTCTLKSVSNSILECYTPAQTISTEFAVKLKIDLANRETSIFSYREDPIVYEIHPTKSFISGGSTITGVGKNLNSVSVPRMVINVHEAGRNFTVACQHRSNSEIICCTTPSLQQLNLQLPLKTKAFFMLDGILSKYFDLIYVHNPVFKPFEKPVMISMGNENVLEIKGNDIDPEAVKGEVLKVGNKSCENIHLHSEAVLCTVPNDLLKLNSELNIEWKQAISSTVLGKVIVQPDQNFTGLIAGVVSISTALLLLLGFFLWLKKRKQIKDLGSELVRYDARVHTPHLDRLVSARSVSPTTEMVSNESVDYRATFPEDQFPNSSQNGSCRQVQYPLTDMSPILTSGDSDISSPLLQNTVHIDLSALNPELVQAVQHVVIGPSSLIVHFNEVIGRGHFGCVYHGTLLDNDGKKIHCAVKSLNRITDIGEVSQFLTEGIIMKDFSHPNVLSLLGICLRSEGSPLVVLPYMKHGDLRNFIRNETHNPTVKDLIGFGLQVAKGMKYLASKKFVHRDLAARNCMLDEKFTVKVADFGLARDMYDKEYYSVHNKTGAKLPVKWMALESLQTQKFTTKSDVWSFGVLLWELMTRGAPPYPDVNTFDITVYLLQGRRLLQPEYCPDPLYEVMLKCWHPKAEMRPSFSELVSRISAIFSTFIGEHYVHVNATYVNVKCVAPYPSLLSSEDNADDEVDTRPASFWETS
T1 sequence (P09619 33-1106): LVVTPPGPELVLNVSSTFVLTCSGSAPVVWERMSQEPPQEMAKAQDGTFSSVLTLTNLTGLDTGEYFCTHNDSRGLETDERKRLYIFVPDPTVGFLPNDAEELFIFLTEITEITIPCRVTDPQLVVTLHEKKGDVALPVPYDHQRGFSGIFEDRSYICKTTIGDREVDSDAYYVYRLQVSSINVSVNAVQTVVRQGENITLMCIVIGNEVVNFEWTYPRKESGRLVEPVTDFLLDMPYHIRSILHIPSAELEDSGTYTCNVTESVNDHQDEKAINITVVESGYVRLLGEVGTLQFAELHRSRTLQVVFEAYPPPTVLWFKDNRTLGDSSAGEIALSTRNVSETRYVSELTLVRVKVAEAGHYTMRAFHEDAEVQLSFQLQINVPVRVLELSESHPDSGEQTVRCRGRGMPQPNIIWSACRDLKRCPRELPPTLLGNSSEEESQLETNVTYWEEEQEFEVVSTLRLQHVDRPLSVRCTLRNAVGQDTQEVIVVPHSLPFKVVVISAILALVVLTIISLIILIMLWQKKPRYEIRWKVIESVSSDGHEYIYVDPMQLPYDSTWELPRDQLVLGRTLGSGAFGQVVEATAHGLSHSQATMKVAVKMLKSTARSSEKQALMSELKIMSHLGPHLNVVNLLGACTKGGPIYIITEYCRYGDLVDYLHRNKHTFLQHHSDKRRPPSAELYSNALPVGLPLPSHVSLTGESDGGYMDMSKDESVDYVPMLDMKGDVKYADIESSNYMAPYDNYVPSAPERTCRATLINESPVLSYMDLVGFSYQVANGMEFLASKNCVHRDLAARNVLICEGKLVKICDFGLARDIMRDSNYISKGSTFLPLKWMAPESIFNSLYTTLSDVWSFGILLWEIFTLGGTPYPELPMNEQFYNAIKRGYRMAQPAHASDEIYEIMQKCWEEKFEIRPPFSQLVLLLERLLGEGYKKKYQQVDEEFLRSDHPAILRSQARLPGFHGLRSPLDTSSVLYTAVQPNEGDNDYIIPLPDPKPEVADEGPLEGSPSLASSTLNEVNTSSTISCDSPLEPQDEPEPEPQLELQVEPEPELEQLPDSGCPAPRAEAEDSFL

Row | phosphorylation of MET [5] | SMILES | PI3K association with GAB1 and downstream activation of AKT and S6 [1] | P-PDGFRβ [2] | p-PDGFR [3] | phosphorylation of intended target RTK (P-MET) [4]
1 |  | Cc1[nH]c(/C=C2\C(=O)Nc3ccc(S(=O)(=O)N(C)c4cccc(Cl)c4)cc32)c(C)c1C(=O)N1CCN(C)CC1 [SU11274] | no discernable effect | decrease in P-PDGFRβ | diminishes p-PDGFR | effectively blocked phosphorylation
2 | decrease in phosphorylation of MET | Cc1ccc(NC(=O)c2ccc(CN3CCN(C)CC3)cc2)cc1Nc1nccc(-c2cccnc2)n1 [Gleevec™, Imatinib mesylate] | did not significantly effect PI3K activation |  |  | 
